Test results published in patent publication US20090221523A1 (priority 2005, published 2009).
In brackets after ≈: the same amount, converted by molar mass. Where two headings read alike, the source gives them in different places. Marks after values point to notes of the source that are not given here.

Columns and labels:
HSV-1 strain F = test: microbe, parasite or virus in culture; assay type: cell-based, herpes simplex virus; details: Human alphaherpesvirus 1, HFF
HSV-1 TK− strain DM2.1 = test: microbe, parasite or virus in culture; assay type: cell-based, herpes simplex virus; details: Human alphaherpesvirus 1, HFF
[1] = system: CV strain delta crmA (TK+); test: microbe, parasite or virus in culture; assay type: cell-based; details: Cowpox virus, Vero, read-out: CV delta crmA EC50 (TK+)
[2] = system: CV strain TK:GFP lacZ (TK−); test: microbe, parasite or virus in culture; assay type: cell-based; details: Cowpox virus, Vero, read-out: CV TK:GFP lacZ EC50 (TK−)
HSV-1 strain E377 = system: HSV-1 strain E377; parameters: species or system BALB/c mice; details: mouse, in vivo
in vitro = details: human
[3] = system: vaccinia virus (Copenhagen Strain); test: microbe, parasite or virus in culture; assay type: cell-based
[4] = system: cowpox virus (Brighton strain); test: microbe, parasite or virus in culture; assay type: cell-based; details: HFF, read-out: CV (Brighton) EC50
HFF cells [5] = test: cells; assay type: cell-based; details: Homo sapiens, 72 h, read-out: IC50, 50% inhibition of cell proliferation
vaccinia IHD strain = system: vaccinia IHD strain; parameters: species or system BALB/c mice; details: mouse, in vivo
cowpox Brighton Strain [6] = system: cowpox Brighton Strain; parameters: species or system BALB/c mice; details: mouse, in vivo
cowpox Brighton Strain [7] = system: cowpox Brighton Strain; parameters: species or system BALB/c mice; details: mouse, in vivo; remark: listed apart in the source
vaccinia WR strain = system: vaccinia WR strain; parameters: species or system BALB/c mice; details: mouse, in vivo
vaccinia (WR strain) = system: vaccinia (WR strain); parameters: species or system mice; Mean Lung Virus Titer: unit not given here; details: mouse, in vivo
vaccinia (HID strain) = system: vaccinia (HID strain); parameters: species or system mice; Mean Lung Virus Titer: unit not given here; details: mouse, in vivo
ΔcrmA (TK+) CV strain = test: microbe, parasite or virus in culture; assay type: cell-based; details: Cowpox virus, HFF, read-out: EC50 CV (Δcrm lacZ) TK+
[8] = system: TK:GFP lacZ (TK−) CV strain; test: microbe, parasite or virus in culture; assay type: cell-based; details: Cowpox virus, HFF, read-out: EC50 CV (TK:gpf lacZ)
WR strain of VV = test: microbe, parasite or virus in culture; assay type: cell-based; details: Orthopoxvirus vaccinia, HFF, 24 h, read-out: EC50 for inhibiting VV DNA synthesis
VV strain WR = system: VV strain WR; parameters: species or system BALB/c mice; details: mouse, in vivo, ip, 15 mg/kg
HFF cells [9] = details: human
purified VV TK = purified VV TK (Vaccinia virus, UniProt P68564)
[10] = read-out: EC50 HSV-1 (DM2.1) TK−
[11] = read-out: HSV-1 DM2.1 EC50 (TK−)

Nc1nc2c(ncn2COCCO)c(=O)[nH]1 [ACV, acyclovir]
EC50 (HSV-1 strain F; read-out: EC50 HSV-1 (F) TK+): 0.3 µg/mL (≈ 1.33 µM) | EC50 (HSV-1 strain F; read-out: HSV-1 F EC50 (TK+)): 0.35 ± 0.2 µg/mL (≈ 1.55 µM) | EC50 (HSV-1 TK− strain DM2.1; [10]): > 100 µg/mL | EC50 (HSV-1 TK− strain DM2.1; [11]): > 100 µg/mL | EC50 [1]: > 30 µg/mL | EC50 [2]: > 30 µg/mL | Mortality % (HSV-1 strain E377): 0% | Mortality No. dead/total no. (HSV-1 strain E377): 0/15 | CC50 (in vitro): > 100 µg/mL

Nc1ncnc2c1ncn2[C@@H]1O[C@H](CO)[C@@H](O)[C@@H]1O [AraA, vidarabine]
EC50 (HSV-1 strain F; read-out: HSV-1 F EC50 (TK+)): 6.4 ± 3.4 µg/mL (≈ 23.9 µM) | EC50 (HSV-1 TK− strain DM2.1; [11]): 4.9 µg/mL (≈ 18.3 µM) | EC50 [1]: 0.91 ± 0.005 µg/mL (≈ 3.41 µM) | EC50 [2]: 0.78 ± 0.2 µg/mL (≈ 2.92 µM) | CC50 (in vitro): > 100 µg/mL

O=c1[nH]c(=O)n([C@@H]2O[C@H](CO)[C@@H](O)[C@@H]2O)cc1/C=C/Br [BVAU, sorivudine]
EC50 (HSV-1 strain F; read-out: HSV-1 F EC50 (TK+)): 0.05 ± 0.02 µg/mL (≈ 0.143 µM) | EC50 (HSV-1 TK− strain DM2.1; [11]): > 100 µg/mL | EC50 [1]: > 30 µg/mL | EC50 [2]: > 30 µg/mL | CC50 (in vitro): > 100 µg/mL

O=c1[nH]c(=O)n([C@H]2C[C@H](O)[C@@H](CO)O2)cc1/C=C/Br [BVDU, brivudin]
EC50 (HSV-1 strain F; read-out: HSV-1 F EC50 (TK+)): 0.09 µg/mL (≈ 0.27 µM) | EC50 (HSV-1 TK− strain DM2.1; [11]): 100 µg/mL (≈ 300 µM) | EC50 [1]: > 30 µg/mL | EC50 [2]: > 30 µg/mL | CC50 (in vitro): > 100 µg/mL

O=c1[nH]c(=O)n([C@H]2C[C@H](O)[C@@H](CO)O2)cc1Br [BrdU, 5-bromodeoxyuridine]
EC50 (HSV-1 strain F; read-out: HSV-1 F EC50 (TK+)): 1.6 ± 0.2 µg/mL (≈ 5.21 µM) | EC50 (HSV-1 TK− strain DM2.1; [11]): 39 ± 6.3 µg/mL (≈ 127 µM) | EC50 [1]: 0.37 µg/mL (≈ 1.2 µM) | EC50 [2]: 19 µg/mL (≈ 61.9 µM) | CC50 (in vitro): > 100 µg/mL

Nc1ccn(C[C@@H](CO)OCP(=O)(O)O)c(=O)n1 [CDV, cidofovir]
VV (Copenhagen) EC50 [3]: 3.3 ± 0.3 µg/mL | EC50 ([3]; Orthopoxvirus vaccinia, HFF, read-out: VV (Copenhagen) EC50): 3 µg/mL (≈ 10.7 µM) | EC50 [4]: 4.4 ± 0.6 µg/mL (≈ 15.8 µM) | IC50 (HFF cells [5]): 20 ± 7 µg/mL (≈ 71.6 µM) | Mortality Number (vaccinia IHD strain): 0/15 | Mortality Percent (vaccinia IHD strain): 0% | Mortality % (vaccinia IHD strain; ip, 15 mg/kg): 0% | Mortality No. dead/total no. (vaccinia IHD strain; ip, 15 mg/kg): 0/15 | Mortality Number (cowpox Brighton Strain [6]): 0/15 | Mortality Percent (cowpox Brighton Strain [6]): 0% | Mortality % (cowpox Brighton Strain [6]; ip, 15 mg/kg): 0% | Mortality No. dead/total no. (cowpox Brighton Strain [6]; ip, 15 mg/kg): 0/15 | Number of Survivors (cowpox Brighton Strain [7]): 10/10 | Number of Survivors (vaccinia WR strain): 10/10 | MDD (mean day of death of mice that died prior to day 21) (vaccinia (WR strain)): 8.0 days | Mean Lung Virus Titer (vaccinia (WR strain)): 7.0 ± 0.2 | Survivors/Total (vaccinia (WR strain)): 9/10*** | MDD, mean day of death (vaccinia (HID strain)): >21*** day | Mean Lung Virus Titer (vaccinia (HID strain)): 4.7 ± 0.6 | Survivors/Total (vaccinia (HID strain)): 10/10*** | EC50 (HSV-1 strain F; read-out: EC50 HSV-1 (F) TK+): 1.5 ± 1.1 µg/mL (≈ 5.37 µM) | EC50 (HSV-1 strain F; read-out: HSV-1 F EC50 (TK+)): 1.5 ± 1.1 µg/mL (≈ 5.37 µM) | EC50 (HSV-1 TK− strain DM2.1; [10]): 1.5 ± 1.4 µg/mL (≈ 5.37 µM) | EC50 (HSV-1 TK− strain DM2.1; [11]): 1.5 ± 1.4 µg/mL (≈ 5.37 µM) | EC50 [1]: 16.1 ± 0.3 µg/mL (≈ 57.7 µM) | EC50 [2]: 3.3 ± 2.3 µg/mL (≈ 11.8 µM) | EC50 (ΔcrmA (TK+) CV strain): 3.5 ± 3.3 µg/mL (≈ 12.5 µM) | EC50 [8]: 4.2 ± 3.9 µg/mL (≈ 15 µM) | EC50 (WR strain of VV): 3 µg/mL (≈ 10.7 µM) | Mortality % (VV strain WR): 0% | Mortality No. dead/total no. (VV strain WR): 0/15 | CC50 (HFF cells [9]): >100 ± 0 µg/mL | Toxicity CC50 (HFF cells [9]): >100 ± 0 µg/mL | Vmax (purified VV TK): <0.025 µM/min/mg | CC50 (in vitro): > 100 µg/mL

Nc1nc(=O)n([C@@H]2O[C@H](CO)[C@@H](O)[C@@H]2F)cc1I [FIAC, fiacitabine]
EC50 (HSV-1 strain F; read-out: HSV-1 F EC50 (TK+)): 0.06 ± 0.02 µg/mL (≈ 0.162 µM) | EC50 (HSV-1 TK− strain DM2.1; [11]): 8 ± 1.3 µg/mL (≈ 21.6 µM) | EC50 [1]: 18 ± 0.25 µg/mL (≈ 48.5 µM) | EC50 [2]: 9.2 ± 3.7 µg/mL (≈ 24.8 µM) | Vmax (purified VV TK): <0.14 µM/min/mg | CC50 (in vitro): > 100 µg/mL
